Columns and labels:
Format in all cases: biochemical
Pim-1 = Pim-1 (Homo sapiens (Human), UniProt P11309); assay: Pim-1 kinase assay; conditions: 1 mM ATP, biotin-labeled BAD peptide substrate; read-out: Pim1 IC50
In short: (§1)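 Biotin-BAD peptide ([…]) phosphorylated with 1 mM ATP by 2.5 pM Pim-1 or 1.25 pM Pim-3, 1 h at 25 °C in Tris pH 7.5, MgCl2, DTT buffer. EDTA stop with anti-phospho-BAD (Ser112) antibody and AlphaScreen streptavidin donor/Protein-A acceptor beads; signal read after 1 h dark incubation.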

Pim-2 = Pim-2 (Homo sapiens (Human), UniProt Q9P1W9); assay: Pim-2 kinase assay; conditions: 1 mM ATP, fluorescein-labeled CREBtide peptide substrate; read-out: Pim2 IC50
In short: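 TR-FRET assay: 1 nM Pim-2 with 0.05 μM fluorescein-CREBtide and 1 mM ATP in Tris pH 7.5, 5 mM MgCl2, 5 mM DTT, 2 h at 25 °C. EDTA stop, then Tb-anti-pCREB Ser133 antibody for 30 min before reading.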

Pim-3 = Pim-3 (Homo sapiens (Human), UniProt Q86V86); assay: Pim-3 kinase assay; conditions: 1 mM ATP, biotin-labeled BAD peptide substrate; read-out: Pim3 IC50
In short: as §1

Chain of Pim-1 (P11309 whole entry): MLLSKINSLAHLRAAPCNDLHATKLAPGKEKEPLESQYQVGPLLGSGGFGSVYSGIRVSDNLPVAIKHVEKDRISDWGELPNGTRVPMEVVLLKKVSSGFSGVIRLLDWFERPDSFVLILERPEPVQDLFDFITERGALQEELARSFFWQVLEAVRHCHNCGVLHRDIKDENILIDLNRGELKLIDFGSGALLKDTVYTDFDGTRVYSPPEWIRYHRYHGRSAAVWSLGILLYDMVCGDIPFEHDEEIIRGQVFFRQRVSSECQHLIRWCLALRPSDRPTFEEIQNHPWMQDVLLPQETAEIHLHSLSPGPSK
Chain of Pim-2 (Q9P1W9 whole entry): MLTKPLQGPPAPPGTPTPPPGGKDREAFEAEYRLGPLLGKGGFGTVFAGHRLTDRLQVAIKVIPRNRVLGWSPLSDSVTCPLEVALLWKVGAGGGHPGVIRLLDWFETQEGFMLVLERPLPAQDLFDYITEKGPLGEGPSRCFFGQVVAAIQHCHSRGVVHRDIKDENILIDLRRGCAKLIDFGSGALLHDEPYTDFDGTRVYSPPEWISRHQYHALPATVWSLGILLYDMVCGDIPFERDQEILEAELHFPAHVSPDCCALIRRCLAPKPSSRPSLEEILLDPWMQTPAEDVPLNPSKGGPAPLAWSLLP

Row | Compound | IC50 (Pim-1) [nM] | IC50 (Pim-2) [nM] | IC50 (Pim-3) [nM]
1 | Nc1oc2cc(CN3CC(F)(F)C3)cnc2c1C(=O)Nc1cnccc1N1C[C@@H](N)C[C@@H](C(F)(F)F)C1 [Example 100, 2-Amino-N-{4-[(3S,5R)-3-amino-5-(trifluoromethyl)piperidin-1-yl]pyridin-3-yl}-6-[(3,3-difluoroazetidin-1-yl)methyl]furo[3,2-b]pyridine-3-carboxamide] | ≤ 10 | 10 to 100 | ≤ 10
2 | Nc1oc2cc(CN3CC(O)C3)cnc2c1C(=O)Nc1cnccc1N1C[C@@H](N)C[C@@H](C(F)(F)F)C1 [Example 101, 2-Amino-N-{4-[(3S,5R)-3-amino-5-(trifluoromethyl)piperidin-1-yl]pyridin-3-yl}-6-[(3-hydroxyazetidin-1-yl)methyl]furo[3,2-b]pyridine-3-carboxamide] | ≤ 10 | 10 to 100 | ≤ 10
3 | CC(C)c1cnc2c(C(=O)Nc3cnccc3N3C[C@@H](N)[C@@H](n4ccnn4)[C@@H](C)C3)c(N)oc2c1 [Example 102, 2-Amino-N-{4-[(3R,4S,5S)-3-amino-5-methyl-4-(1H-1,2,3-triazol-1-yl)piperidin-1-yl]pyridin-3-yl}-6-isopropylfuro[3,2-b]pyridine-3-carboxamide] | ≤ 10 | 10 to 100 | ≤ 10
4 | COC1CCN(Cc2cnc3c(C(=O)Nc4cnccc4N4C[C@@H](N)C[C@@H](C(F)(F)F)C4)c(N)oc3c2)C1 (stereo partly drawn) [Example 103, 2-Amino-N-{4-[(3S,5R)-3-amino-5-(trifluoromethyl)piperidin-1-yl]pyridin-3-yl}-6-[(3-methoxypyrrolidin-1-yl)methyl]furo[3,2-b]pyridine-3-carboxamide] | ≤ 10 | 10 to 100 | ≤ 10
5 | CCOC1CCN(Cc2cnc3c(C(=O)Nc4cnccc4N4C[C@@H](N)C[C@@H](C(F)(F)F)C4)c(N)oc3c2)C1 (stereo partly drawn) [Example 104, 2-Amino-N-{4-[(3S,5R)-3-amino-5-(trifluoromethyl)piperidin-1-yl]pyridin-3-yl}-6-[(3-ethoxypyrrolidin-1-yl)methyl]furo[3,2-b]pyridine-3-carboxamide] | ≤ 10 | 10 to 100 | ≤ 10
6 | Nc1oc2cc(CN3CC[C@@H](F)C3)cnc2c1C(=O)Nc1cnccc1N1C[C@@H](N)C[C@@H](C(F)(F)F)C1 [Example 105, 2-Amino-N-{4-[(3S,5R)-3-amino-5-(trifluoromethyl)piperidin-1-yl]pyridin-3-yl}-6-{[(3R)-3-fluoropyrrolidin-1-yl]methyl}furo[3,2-b]pyridine-3-carboxamide] | ≤ 10 | 10 to 100 | ≤ 10
7 | Nc1oc2cc(CN3CC[C@H](F)C3)cnc2c1C(=O)Nc1cnccc1N1C[C@@H](N)C[C@@H](C(F)(F)F)C1 [Example 106, 2-Amino-N-{4-[(3S,5R)-3-amino-5-(trifluoromethyl)piperidin-1-yl]pyridin-3-yl}-6-{[(3S)-3-fluoropyrrolidin-1-yl]methyl}furo[3,2-b]pyridine-3-carboxamide] | ≤ 10 | 10 to 100 | ≤ 10
8 | COC1CCN(Cc2cnc3c(C(=O)Nc4cnccc4N4C[C@@H](N)C[C@@H](C(F)(F)F)C4)c(N)oc3c2)CC1 [Example 107, 2-Amino-N-{4-[(3S,5R)-3-amino-5-(trifluoromethyl)piperidin-1-yl]pyridin-3-yl}-6-[(4-methoxypiperidin-1-yl)methyl]furo[3,2-b]pyridine-3-carboxamide] | ≤ 10 | 10 to 100 | ≤ 10
9 | CN1CCN(Cc2cnc3c(C(=O)Nc4cnccc4N4C[C@@H](N)C[C@@H](C(F)(F)F)C4)c(N)oc3c2)CC1 [Example 108, 2-Amino-N-{4-[(3S,5R)-3-amino-5-(trifluoromethyl)piperidin-1-yl]pyridin-3-yl}-6-[(4-methylpiperazin-1-yl)methyl]furo[3,2-b]pyridine-3-carboxamide] | ≤ 10 | 10 to 100 | ≤ 10
10 | Cn1cc(-c2cnc3c(C(=O)Nc4cnccc4N4C[C@@H](N)C[C@@H](C(F)(F)F)C4)c(N)oc3c2)cn1 [Example 109, 2-Amino-N-{4-[(3S,5R)-3-amino-5-(trifluoromethyl)piperidin-1-yl]pyridin-3-yl}-6-(1-methyl-1H-pyrazol-4-yl)furo[3,2-b]pyridine-3-carboxamide] | ≤ 10 | 10 to 100 | ≤ 10
11 | C[C@@H]1C[C@H](N)CN(c2ccncc2NC(=O)c2c(N)oc3cc(-c4cnn(C)c4)cnc23)C1 [Example 110, 2-Amino-N-{4-[(3S,5R)-3-amino-5-methylpiperidin-1-yl]pyridin-3-yl}-6-(1-methyl-1H-pyrazol-4-yl)furo[3,2-b]pyridine-3-carboxamide] | ≤ 10 | 10 to 100 | ≤ 10
12 | Nc1oc2cc(-c3cncnc3)cnc2c1C(=O)Nc1cnccc1N1C[C@@H](N)C[C@@H](C(F)(F)F)C1 [Example 111, 2-Amino-N-{4-[(3S,5R)-3-amino-5-(trifluoromethyl)piperidin-1-yl]pyridin-3-yl}-6-pyrimidin-5-ylfuro[3,2-b]pyridine-3-carboxamide] | ≤ 10 | 10 to 100 | ≤ 10
13 | C[C@@H]1C[C@H](N)CN(c2ccncc2NC(=O)c2c(N)oc3cc(-c4cncnc4)cnc23)C1 [Example 112, 2-Amino-N-{4-[(3S,5R)-3-amino-5-methylpiperidin-1-yl]pyridin-3-yl}-6-pyrimidin-5-ylfuro[3,2-b]pyridine-3-carboxamide] | ≤ 10 | 10 to 100 | ≤ 10
14 | Nc1oc2cc(C3CC3)cnc2c1C(=O)Nc1cnccc1N1C[C@@H](N)C[C@@H](C(F)(F)F)C1 [Example 113, 2-Amino-N-{4-[(3S,5R)-3-amino-5-(trifluoromethyl)piperidin-1-yl]pyridin-3-yl}-6-cyclopropylfuro[3,2-b]pyridine-3-carboxamide] | ≤ 10 | ≤ 10 | ≤ 10
15 | C[C@@H]1C[C@H](N)CN(c2ccncc2NC(=O)c2c(N)oc3cc(C4CC4)cnc23)C1 [Example 114, 2-Amino-N-{4-[(3S,5R)-3-amino-5-methylpiperidin-1-yl]pyridin-3-yl}-6-cyclopropylfuro[3,2-b]pyridine-3-carboxamide] | ≤ 10 | ≤ 10 | ≤ 10
16 | Cc1cnc2c(C(=O)Nc3cnccc3N3C[C@@H](N)C[C@@H](C(F)(F)F)C3)c(N)oc2c1 [Example 115, 2-Amino-N-{4-[(3S,5R)-3-amino-5-(trifluoromethyl)piperidin-1-yl]pyridin-3-yl}-6-methylfuro[3,2-b]pyridine-3-carboxamide] | ≤ 10 | ≤ 10 | ≤ 10
17 | Cc1cnc2c(C(=O)Nc3cnccc3N3C[C@H](C)C[C@H](N)C3)c(N)oc2c1 [Example 116, 2-Amino-N-{4-[(3S,5R)-3-amino-5-methylpiperidin-1-yl]pyridin-3-yl}-6-methylfuro[3,2-b]pyridine-3-carboxamide] | ≤ 10 | 10 to 100 | ≤ 10
18 | CCc1cnc2c(C(=O)Nc3cnccc3N3C[C@H](C)C[C@H](N)C3)c(N)oc2c1 [Example 117, 2-Amino-N-{4-[(3S,5R)-3-amino-5-methylpiperidin-1-yl]pyridin-3-yl}-6-ethylfuro[3,2-b]pyridine-3-carboxamide] | ≤ 10 | ≤ 10 | ≤ 10
19 | CCc1cnc2c(C(=O)Nc3cnccc3N3C[C@@H](N)C[C@@H](C(F)(F)F)C3)c(N)oc2c1 [Example 118, 2-Amino-N-{4-[(3S,5R)-3-amino-5-(trifluoromethyl)piperidin-1-yl]pyridin-3-yl}-6-ethylfuro[3,2-b]pyridine-3-carboxamide] | ≤ 10 | ≤ 10 | ≤ 10
20 | C[C@@H]1C[C@H](N)CN(c2ccncc2NC(=O)c2c(N)oc3cc(-c4c(F)cccc4F)cnc23)C1 [Example 119, 2-Amino-N-{4-[(3S,5R)-3-amino-5-methylpiperidin-1-yl]pyridin-3-yl}-6-(2,6-difluorophenyl)furo[3,2-b]pyridine-3-carboxamide] | ≤ 10 | 10 to 100 | ≤ 10
21 | C[C@@H]1C[C@H](N)CN(c2ccncc2NC(=O)c2c(N)oc3cc(OC(F)F)cnc23)C1 [Example 120, 2-Amino-N-(4-((3S,5R)-3-amino-5-methylpiperidin-1-yl)pyridin-3-yl)-6-(difluoromethoxy)furo[3,2-b]pyridine-3-carboxamide] | ≤ 10 | 10 to 100 | ≤ 10
22 | CC(C)Oc1cnc2c(C(=O)Nc3cnccc3N3C[C@H](C)C[C@H](N)C3)c(N)oc2c1 [Example 121, 2-Amino-N-(4-((3S,5R)-3-amino-5-methylpiperidin-1-yl)pyridin-3-yl)-6-isopropoxyfuro[3,2-b]pyridine-3-carboxamide] | ≤ 10 | 10 to 100 | ≤ 10
23 | C[C@@H]1C[C@H](N)CN(c2ccncc2NC(=O)c2c(N)oc3cc(C4CCOC4)cnc23)C1 (stereo partly drawn) [Example 122, 2-Amino-N-(4-((3S,5R)-3-amino-5-methylpiperidin-1-yl)pyridin-3-yl)-6-(tetrahydrofuran-3-yl)furo[3,2-b]pyridine-3-carboxamide] | ≤ 10 | ≤ 10 | ≤ 10

From patent publication US10000507B2, “Furo- and thieno-pyridine carboxamide compounds useful as pim kinase inhibitors” (Incyte Corporation, priority 2013, dated 2018)
